Experimental data from publication PMC11345828 (Journal of Medicinal Chemistry, 2024).
Values after ≈ are worked out from the molar mass of the structure shown. Like-named read-outs stand apart in the source and are kept apart here.

How the values were obtained:
[1] = set-up: method as in PMID 37880389; details: including increases in patient troponin I levels; cited from earlier work
[2] = set-up: method as in PMID 30254093; details: species not given; cited from earlier work
NCI-H929 cell line = test: cells; details: Homo sapiens
Protocol: (§1) NCI-H1048 were cultured in custom medium prepared by PanBioTech containing DMEM/F12 + 5% fetal calf serum, 0.005 mg/mL insulin, 0.01 mg/mL transferrin, 30 nM sodium selenite, 10 nM hydrocortisone, 10 nM β-estradiol and […] 2 mM L-glutamine.
(§2) Suspension cells were plated immediately before compound addition. Adherent cell lines were incubated overnight at 37 °C in a tissue culture incubator prior to compound addition. Compounds were added in triplicates using an HP D300e Digital Dispenser (Hewlett-Packard) or manually at the concentrations indicated and total volumes were normalized using dimethyl sulfoxide (DMSO) backfill, with final DMSO concentration of 0.5%. Control wells were treated with DMSO only.

K562 cell line = test: cells; details: Homo sapiens, K562, read-out: K562 GI50
Protocol: as §1, §2

Mcl-1 = Mcl-1 (Homo sapiens, UniProt Q07820); assay type: binding; details: read-out: TR-FRET Ki
Mcl-1, sequence (Q07820 whole entry): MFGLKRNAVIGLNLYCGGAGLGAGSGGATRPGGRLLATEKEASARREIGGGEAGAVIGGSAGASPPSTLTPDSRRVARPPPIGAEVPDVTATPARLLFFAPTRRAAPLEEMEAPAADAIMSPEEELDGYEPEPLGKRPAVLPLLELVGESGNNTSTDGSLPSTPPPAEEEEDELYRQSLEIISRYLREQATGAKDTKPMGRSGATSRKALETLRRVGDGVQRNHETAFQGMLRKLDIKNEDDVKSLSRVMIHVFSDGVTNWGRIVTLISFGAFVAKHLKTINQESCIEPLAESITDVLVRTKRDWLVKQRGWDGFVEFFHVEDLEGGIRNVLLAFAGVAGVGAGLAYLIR
Excerpt: Mixtures containing vehicle without compound served as a negative control, while mixtures containing no protein served as a positive control.

[3] = A427 NSCLC subcutaneous xenograft model; assay type: in vivo, mouse; details: female, CB17/Icr-Prkdc(scid)/IcrCrl, mouse, in vivo, single agent
Protocol: (§3) After fixation, tumor samples were embedded in paraffin blocks. Two-μm thick sections of each FFPE-block were prepared on a microtome, placed on glass slides and dewaxed. H&E staining was performed using Papanicolaous Solution 1a Harris′ Hematoxylin solution (Merck) and Shandon Eosin Y aqueous (Thermo) on the Gemini stainer (Thermo). […] Analysis was performed using HALO image analysis software 2.1 (Indica Laboratories). Quantification of Ki67 positivity was performed using multiplex IHC module with integrated AI based nucleus detection and a threshold set for positive nuclei was used. Viable tumor area was calculated from H&E staining using AI based classifier Densenet V2.
(§4) Female BomTac:NMRI-Foxn1nu mice and CB17/Icr-Prkdc(scid)/IcrCrl and were obtained from Taconic Denmark at an age of 6–8 weeks. After arrival of the local animal facility at Boehringer Ingelheim RCV GmbH & Co KG mice were allowed to adjust to housing conditions at least for 5 days before the start of the experiment. Mice were group-housed under pathogen-free and controlled environmental conditions and handled according to the institutional, governmental and European Union guidelines (Austrian Animal Protection Laws, GV-SOLAS and FELASA guidelines). Animal studies were approved by the internal ethics committee and the local governmental committee. To establish subcutaneous tumors mice were injected with 5 × 10^6 A427cells in Matrigel (CB17/Icr-Prkdc(scid)/IcrCrl), 1 × 10^6 NCI-H1048 cells in Matrigel (BomTac:NMRI-Foxn1nu and 5 × 10^6 NCI-H929 cells in Matrigel (CB17/Icr-Prkdc(scid)/IcrCrl). Tumor diameters were measured with a caliper three times a week. The volume of each tumor [in mm^3] was calculated according to the formula “tumor volume = length × diameter^2 × π/6.” To monitor side effects of treatment, mice were inspected daily for abnormalities and body weight was determined three times per week. Animals were sacrificed when the tumors reached a size of 1500 mm^3. […] Tumors were reported as regressing when the tumor volume at a given day was below the tumor volume at treatment start.

[4] = Relative plasma protein binding by shift in EC50 in a caspase induction assay, minipig; assay type: in vitro ADME; details: minipig vs human
Excretion study in rat = assay type: in vivo
[5] = Metabolic stability in hepatocytes, rat; assay type: in vitro ADME; details: incubated with 50% of human serum
[6] = Metabolic stability in hepatocytes, mouse; assay type: in vitro ADME; details: incubated with 50% of human serum
[7] = Relative plasma protein binding by shift in EC50 in a caspase induction assay, dog; assay type: in vitro ADME; details: dog vs human
OATP1B1/ABCC2 = test: Transporter substrate assessment; assay type: in vitro ADME
[8] = tested on: NCI-H929 cell line-derived MM xenograft; test: NCI-H929 subcutaneous multiple myeloma xenograft model; assay type: in vivo, mouse; details: 60 and 80 mg/kg, single dose IV
Protocol: (§5) Caspase-Glo 3/7 Assay (PROMEGA #G8090) was performed according to manufacturer’s instructions using 200 ng of sample lysate in a total volume of 100 μL per well. 100 μL of the GLO reagent were added, mixed, and incubated for 90 min at room temperature. The plate was measured on an EnSpireTM Plate reader (luminescence, 0.1s).
as §4

[9] = as above; assay type: in vivo, mouse; details: female, CB17/Icr-Prkdc(scid)/IcrCrl, mouse, in vivo, single dose IV, NCI-H929 xenograft study
Protocol: as §5, §4

Plasma protein binding = assay type: in vitro ADME; details: above the limit of quantification of the assay
Bcl-XL = Bcl-XL (Homo sapiens, UniProt Q07817); test: FPA assay, Bcl-XL; assay type: binding
Bcl-XL, sequence (Q07817 whole entry, species assumed): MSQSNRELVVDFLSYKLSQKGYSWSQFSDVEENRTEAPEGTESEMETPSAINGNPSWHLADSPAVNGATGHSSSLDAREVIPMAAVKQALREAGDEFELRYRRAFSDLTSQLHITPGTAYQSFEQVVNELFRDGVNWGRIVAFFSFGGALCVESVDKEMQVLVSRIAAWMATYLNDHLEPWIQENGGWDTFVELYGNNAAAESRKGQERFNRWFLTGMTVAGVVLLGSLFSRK

Aqueous solubility = assay type: physicochemical; details: aqueous solution; at pH 7.8
[10] = Metabolic stability in hepatocytes, human; assay type: in vitro ADME; details: incubated with 50% of human serum
Bcl-2 = Bcl-2 (Homo sapiens, UniProt P10415); test: FPA assay, Bcl-2; assay type: binding
Bcl-2, sequence (P10415 whole entry, species assumed): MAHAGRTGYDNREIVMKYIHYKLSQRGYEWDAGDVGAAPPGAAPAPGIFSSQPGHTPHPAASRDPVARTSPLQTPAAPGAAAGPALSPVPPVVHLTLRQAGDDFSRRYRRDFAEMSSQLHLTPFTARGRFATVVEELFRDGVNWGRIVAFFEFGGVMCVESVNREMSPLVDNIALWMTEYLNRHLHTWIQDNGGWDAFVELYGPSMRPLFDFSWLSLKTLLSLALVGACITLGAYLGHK

Dog IV PK = details: dosed at 0.5 mg/kg
Protocol: (§6) For PK analysis, mice and dogs were administered intravenously with compound formulated either in 10% ethanol and 10% Cremophor EL for mice or in 50% ethanol and 50% PEG500 for dogs. Plasma samples were obtained at predefined time points and compound concentrations in plasma were measured by quantitative HPLC-MS/MS using an internal standard. Calibration and quality control samples were prepared using blank plasma from untreated animals. Samples were precipitated with acetonitrile and injected into a HPLC system (Agilent 1200). […] The HPLC was interfaced by ESI operated in positive ionization mode to a triple quadrupole mass spectrometer (6500+ Triple Quad System, SCIEX) operated in multiple reaction monitoring mode. Chromatograms were analyzed with Analyst (SCIEX) and pharmacokinetic parameters were calculated by noncompartmental analysis using proprietary software.

[11] = Metabolic stability in hepatocytes, minipig; assay type: in vitro ADME; details: incubated with 50% of human serum
[12] = Relative plasma protein binding by shift in EC50 in a caspase induction assay, rat; assay type: in vitro ADME; details: rat vs human
[13] = Metabolic stability in hepatocytes, dog; assay type: in vitro ADME; details: incubated with 50% of human serum
[14] = tested on: A427 cell line-derived NSCLC xenograft; test: A427 NSCLC subcutaneous xenograft model; assay type: in vivo, mouse
Protocol: as §3, §4

A427 cells = test: cells; details: Homo sapiens, A-427, read-out: A427 GI50
Protocol: (§7) NCI-H1048 were cultured in custom medium prepared by PanBioTech containing DMEM/F12 + 5% fetal calf serum, 0.005 mg/mL insulin, 0.01 mg/mL transferrin, 30 nM sodium selenite, 10 nM hydrocortisone, 10 nM β-estradiol and 4.5 mM 2 mM L-glutamine. […] All cell lines were cultured at 37 °C with 5% CO2 in a humidified incubator and have been regularly tested negatively for mycoplasm contamination.

NCI-H1048 cells = test: cells; details: Homo sapiens, NCI-H1048, read-out: NCI-H1048 GI50
Protocol: as §7

NCI-H1048 SCLC xenograft = details: topotecan at 2.5 mg/kg q3/4d
Protocol: Female BomTac:NMRI-Foxn1nu mice and CB17/Icr-Prkdc(scid)/IcrCrl and were obtained from Taconic Denmark at an age of 6–8 weeks. After arrival of the local animal facility at Boehringer Ingelheim RCV GmbH & Co KG mice were allowed to adjust to housing conditions at least for 5 days before the start of the experiment. […] To establish subcutaneous tumors mice were injected with 5 × 10^6 A427cells in Matrigel (CB17/Icr-Prkdc(scid)/IcrCrl), 1 × 10^6 NCI-H1048 cells in Matrigel (BomTac:NMRI-Foxn1nu and 5 × 10^6 NCI-H929 cells in Matrigel (CB17/Icr-Prkdc(scid)/IcrCrl). Tumor diameters were measured with a caliper three times a week. The volume of each tumor [in mm^3] was calculated according to the formula “tumor volume = length × diameter^2 × π/6.” To monitor side effects of treatment, mice were inspected daily for abnormalities and body weight was determined three times per week. Animals were sacrificed when the tumors reached a size of 1500 mm^3. […] Tumors were reported as regressing when the tumor volume at a given day was below the tumor volume at treatment start.

[15] = NCI-H929, read-out: NCI-H929 GI50
[16] = docetaxel at 10 mg/kg q7d, single agent

Protocol for Mouse IV PK: as §6

For `COc1ccccc1-c1nccc(COc2ccccc2C[C@@H](Oc2ncnc3sc(-c4ccc(F)cc4)c(-c4ccc(OCCN5CCN(C)CC5)c(Cl)c4C)c23)C(=O)O)n1` [Compound 1], the “toxicity reported in the clinic” value [1] is given as “dose limiting toxicities”.

In the case of `CO[C@H]1/C=C/C[C@H](C)[C@@H](C)S(=O)(=O)NC(=O)c2ccc3c(c2)N(C[C@@H]2CC[C@H]21)C[C@@]1(CCCc2cc(Cl)ccc21)CO3` [Compound 3], the T [2] is given as 14 h and the Vss [2] is given as 0.6 L/kg.

For `CO[C@]1(CN2CCN3CCCC[C@@H]3C2)/C=C/C[C@H](C)[C@@H](C)S(=O)(=O)NC(=O)c2ccc3c(c2)N(C[C@@H]2CC[C@H]21)C[C@@]1(CCCc2cc(Cl)ccc21)CO3` [Compound 4], the “toxicity reported in the clinic” value [1] is listed as “dose limiting toxicities”.

For `Cc1c(Cl)c2c(Cl)c(C)c1-c1c(-c3ccc(F)cc3)sc3ncnc(c13)O[C@@H](C(=O)O)Cc1cc(ccc1OCc1ccnc(-c3ccc(OC[C@H]4COCCO4)cc3)n1)OC[C@@H](CN1CCN(C)CC1)O2` [Compound 5], the “toxicity reported in the clinic” value [1] is listed as “dose limiting toxicities”.

In the case of `Cc1cc(N2C[C@@H](C)n3c(c(CCCOc4cc(C)c(Cl)c(C)c4)c4ccc(Cl)c(-c5c(C)nn(C)c5C)c43)C2=O)c2c(c1)cc(C(=O)O)n2C` [Compound 11, (R)-7-(7-Chloro-10-(3-(4-chloro-3,5-dimethylphenoxy)propyl)-4-methyl-1-oxo-6-(1,3,5-trimethyl-1H-pyrazol-4-yl)-3,4-dihydropyrazino[1,2-a]indol-2(1H)-yl)-1,5-dimethyl-1H-indole-2-carboxylic Acid], the GI50 (NCI-H929 cell line; [15]) is reported as 140 ± 110 nM, the GI50 (K562 cell line) is reported as > 12500 nM and the Ki (Mcl-1) is reported as 0.205 ± 0.018 nM.

With `COc1cc(N2C[C@@H](C)n3c(c(CCCOc4cc(C)c(Cl)c(C)c4)c4ccc(Cl)c(-c5c(C)nn(C)c5C)c43)C2=O)c2c(c1)cc(C(=O)O)n2C` [Compound 12, (R)-7-(7-Chloro-10-(3-(4-chloro-3,5-dimethylphenoxy)propyl)-4-methyl-1-oxo-6-(1,3,5-trimethyl-1H-pyrazol-4-yl)-3,4-dihydropyrazino[1,2-a]indol-2(1H)-yl)-5-methoxy-1-methyl-1H-indole-2-carboxylic Acid] the GI50 (NCI-H929 cell line; [15]) was 211 ± 22 nM, the GI50 (K562 cell line) was > 12500 nM and the Ki (Mcl-1) was 0.185 ± 0.027 nM.

For `COc1ccc(N2C[C@@H](C)n3c(c(CCCOc4cc(C)c(Cl)c(C)c4)c4ccc(Cl)c(-c5c(C)nn(C)c5C)c43)C2=O)c2c1cc(C(=O)O)n2C` [Compound 13, (R)-7-(7-Chloro-10-(3-(4-chloro-3,5-dimethylphenoxy)propyl)-4-methyl-1-oxo-6-(1,3,5-trimethyl-1H-pyrazol-4-yl)-3,4-dihydropyrazino[1,2-a]indol-2(1H)-yl)-4-methoxy-1-methyl-1H-indole-2-carboxylic Acid], the GI50 (NCI-H929 cell line; [15]) was 110 ± 38 nM, the GI50 (K562 cell line) was > 7100 nM and the Ki (Mcl-1) was 0.091 ± 0.003 nM.

In the case of `COCc1cc(N2C[C@@H](C)n3c(c(CCCOc4cc(C)c(Cl)c(C)c4)c4ccc(Cl)c(-c5c(C)nn(C)c5C)c43)C2=O)c2c(c1)cc(C(=O)O)n2C` [Compound 14, (R)-7-(7-Chloro-10-(3-(4-chloro-3,5-dimethylphenoxy)propyl)-4-methyl-1-oxo-6-(1,3,5-trimethyl-1H-pyrazol-4-yl)-3,4-dihydropyrazino[1,2-a]indol-2(1H)-yl)-5-(methoxymethyl)-1-methyl-1H-indole-2-carboxylic Acid], the GI50 (NCI-H929 cell line; NCI-H929, read-out: H929 GI50) is reported as 112 nM, the GI50 (NCI-H929 cell line; [15]) is reported as 122 ± 16 nM and the GI50 (K562 cell line) is reported as > 12500 nM. It also gave a Ki (Mcl-1) of 0.2 ± 0.065 nM.

For `COc1c(OCC2CCOCC2)cc(N2C[C@@H](C)n3c(c(CCCOc4cc(C)c(Cl)c(C)c4)c4ccc(Cl)c(-c5c(C)nc(C)nc5C)c43)C2=O)c2c1cc(C(=O)O)n2C` [Compound 26, (R)-7-(7-Chloro-10-(3-(4-chloro-3,5-dimethylphenoxy)propyl)-4-methyl-1-oxo-6-(2,4,6-trimethylpyrimidin-5-yl)-3,4-dihydropyrazino[1,2-a]indol-2(1H)-yl)-4-methoxy-1-methyl-5-((tetrahydro-2H-pyran-4-yl)methoxy)-1H-indole-2-carboxylic Acid], the AUC ([3]; 26 at 60 mg/kg q7d IV) was 552 µM·h, the “plasma protein binding lower than in human” value [4] was ~2 fold and the “biliary clearance as share of the total clearance” value (Excretion study in rat) was 60–75%. The “metabolic stability in hepatocytes” value [5] was 22 % Qh, the “metabolic stability in hepatocytes” value [6] was 40 % Qh and the “plasma protein binding lower than in human” value [7] was ~2 fold. The “substrate of OATP1B1/ABCC2” value (OATP1B1/ABCC2) was “substrate”, the “change in the median weight of the mice” value [8] was “no significant change” and the AUC ([9]; 60 mg/kg) was 442 µM·h. For the same molecule, the AUC ([9]; 80 mg/kg) was 635 µM·h, the fraction unbound (Plasma protein binding) was < 0.002 and the CL (Mouse IV PK; mouse IV, dosed at 25 mg/kg) was 0.132 L/h/kg. The “reduction in clearance from compound 20” value (Mouse IV PK; mouse IV, relative to compound 20) was 20 fold, the Vd (Mouse IV PK; mouse, plasma, iv, 25 mg/kg) was < 0.1 L/kg and the clearance (Mouse IV PK; mouse, plasma, iv, 25 mg/kg) was 0.132 L/h/kg. For the same molecule, the half-life (Mouse IV PK; mouse, plasma, iv, 25 mg/kg) was 3.7 h, the Ki (Bcl-XL) was 36000 nM and the solubility (Aqueous solubility) was 15 mg/mL (≈ 17.3 mM). The “metabolic stability in hepatocytes” value [10] was 12 % Qh, the Ki (Bcl-2) was 1800 nM and the AUC/Dose (Dog IV PK) was 3860 nM*h/mpk. For the same molecule, the CL (Dog IV PK) was 0.312 L/h/kg, the “CL (% hep blood flow)” value (Dog IV PK) was 17 % hep blood flow and the “metabolic stability in hepatocytes” value [11] was 35 % Qh. The “plasma protein binding lower than human” value [12] was 3 fold and the “metabolic stability in hepatocytes” value [13] was 19 % Qh.

For `CC(=O)O[C@@]12CO[C@@H]1C[C@H](O)[C@@]1(C)C(=O)[C@H](O)C3=C(C)[C@@H](OC(=O)[C@H](O)[C@@H](NC(=O)OC(C)(C)C)c4ccccc4)C[C@@](O)([C@@H](OC(=O)c4ccccc4)[C@H]21)C3(C)C` [Docetaxel, docetaxel], the “TGI d21” value [14, 16] was 112%, the “Tumor regressions d21” value [14, 16] was 8 x/8 and the “tumor outgrowth began around day after treatment start” value ([14]; docetaxel at 10 mg/kg q7d alone) was ~15 days. The AUC ([3]; docetaxel at 10 mg/kg q7d) was 15.8 µM·h and the GI50 (A427 cells) was 4400 nM.

In the case of `CC[C@@]1(O)C(=O)OCc2c1cc1n(c2=O)Cc2cc3c(CN(C)C)c(O)ccc3nc2-1` [Topotecan, topotecan], the GI50 (NCI-H1048 cells) is reported as 14 nM, the “TGI d16” value (NCI-H1048 SCLC xenograft) is reported as 94% and the “Tumor regression d16” value (NCI-H1048 SCLC xenograft) is reported as 1 x/8.
